Laboratory results published in patent publication US20210395651A1, “COMPOUNDS STABILIZING HYDROLASES IN LIQUIDS” (BASF SE, priority 2018, published 2021).

These compounds were tested against T1, Lipolase® 100L (Thermomyces lanuginosus, UniProt O59952) (assay: Lipase storage stability in liquid formulations at 37° C. (pNP-valerate activity)). Conditions: base formulation I. (Lipolase 0.2 wt%, tested compound 2.5 wt%); 3 d storage at 37° C.
T1 construct: purchased Sigma-Aldrich
T1 sequence (O59952 23-291): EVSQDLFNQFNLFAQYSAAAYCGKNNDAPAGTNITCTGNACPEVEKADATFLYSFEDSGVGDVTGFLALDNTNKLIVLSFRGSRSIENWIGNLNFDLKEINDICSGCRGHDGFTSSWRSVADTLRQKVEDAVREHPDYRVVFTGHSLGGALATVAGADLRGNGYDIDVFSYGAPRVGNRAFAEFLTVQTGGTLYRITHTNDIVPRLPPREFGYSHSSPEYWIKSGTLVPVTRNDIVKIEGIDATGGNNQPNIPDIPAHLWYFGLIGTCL
Type: biochemical, Thermomyces lanuginosa
Procedure: The storage stability of Lipase was assessed at 37° C.
Base test formulations were manufactured by making base formulations I to V by mixing the components according to Table 1.
The respective component (a) or comparative compound was added, if applicable, to the respective base formulation in amounts as indicated in Table 1.
Lipase used: Lipolase® 100L (CAS-No. 9001-62-1, EC-No. 232-619-9) was purchased from Sigma-Aldrich.
The amount of lipase as provided in Table 1 refers to active protein.
Water was added to accomplish the balance to 100.
Lipolase activity at certain points in time as indicated in Table 2 was be determined by employing pNitrophenol-valerate (2.4 mM pNP-C5 in 100 mM Tris pH 8.0, 0.01% Triton X100) as a substrate. The absorption at 405 nm was measured at 20° C. every 30 seconds over 5 minutes.
The slope (absorbance increase at 405 nm per minute) of the time dependent absorption-curve is directly proportional to the activity of the lipase.
The […] activity values provided in Table 2 were calculated referring to the 100% value determined in the reference formulation at the time 0.
The nomenclature of formulations is as follows: the Roman number before the full stop characterizes the base formulation, the Arabian number the type of compound (A.# compound according to invention (component (a)); (B.#) comparative compound).

SMILES | lipase activity, 3 d [%]
CCCOC(=O)CC(O)(CC(=O)OCCC)C(=O)OCCC [A.2, Tripropylcitrate] | 100
O=C([O-])CC(O)(CC(=O)[O-])C(=O)[O-].[Na+].[Na+].[Na+] [B.2, citric acid trisodiumsalt, reference compound] | 90

Same assay, conditions: base formulation I. (Lipolase 0.2 wt%, tested compound 2.5 wt%); 7 d storage at 37° C.

SMILES | lipase activity, 7 d [%]
CCCOC(=O)CC(O)(CC(=O)OCCC)C(=O)OCCC [A.2, Tripropylcitrate] | 98
O=C([O-])CC(O)(CC(=O)[O-])C(=O)[O-].[Na+].[Na+].[Na+] [B.2, citric acid trisodiumsalt, reference compound] | 81

Same assay, conditions: base formulation I. (Lipolase 0.2 wt%, tested compound 2.5 wt%); 14 d storage at 37° C.

SMILES | lipase activity, 14 d [%]
CCCOC(=O)CC(O)(CC(=O)OCCC)C(=O)OCCC [A.2, Tripropylcitrate] | 94
O=C([O-])CC(O)(CC(=O)[O-])C(=O)[O-].[Na+].[Na+].[Na+] [B.2, citric acid trisodiumsalt, reference compound] | 68

Same assay, conditions: base formulation I. (Lipolase 0.2 wt%, tested compound 2.5 wt%); 21 d storage at 37° C.

SMILES | lipase activity, 21 d [%]
CCCOC(=O)CC(O)(CC(=O)OCCC)C(=O)OCCC [A.2, Tripropylcitrate] | 90
O=C([O-])CC(O)(CC(=O)[O-])C(=O)[O-].[Na+].[Na+].[Na+] [B.2, citric acid trisodiumsalt, reference compound] | 57

Same assay, conditions: base formulation I. (Lipolase 0.2 wt%, tested compound 2.5 wt%); 28 d storage at 37° C.

SMILES | lipase activity, 28 d [%]
CCCOC(=O)CC(O)(CC(=O)OCCC)C(=O)OCCC [A.2, Tripropylcitrate] | 87
O=C([O-])CC(O)(CC(=O)[O-])C(=O)[O-].[Na+].[Na+].[Na+] [B.2, citric acid trisodiumsalt, reference compound] | 47

Same assay, conditions: base formulation I. (Lipolase 0.2 wt%, tested compound 2.5 wt%); 35 d storage at 37° C.

SMILES | lipase activity, 35 d [%]
CCCOC(=O)CC(O)(CC(=O)OCCC)C(=O)OCCC [A.2, Tripropylcitrate] | 82
O=C([O-])CC(O)(CC(=O)[O-])C(=O)[O-].[Na+].[Na+].[Na+] [B.2, citric acid trisodiumsalt, reference compound] | 31

Same assay, conditions: base formulation I. (Lipolase 0.2 wt%, tested compound 2.5 wt%); T0; relative to 100% value of reference formulation at time 0

SMILES | lipase activity, T0 [%]
CCCOC(=O)CC(O)(CC(=O)OCCC)C(=O)OCCC [A.2, Tripropylcitrate] | 101
O=C([O-])CC(O)(CC(=O)[O-])C(=O)[O-].[Na+].[Na+].[Na+] [B.2, citric acid trisodiumsalt, reference compound] | 97

Same assay, conditions: base formulation II. (Lipolase 0.2 wt%, tested compound 2.5 wt%); 3 d storage at 37° C.

SMILES | lipase activity, 3 d [%]
O=C([O-])CC(O)(CC(=O)[O-])C(=O)[O-].[Na+].[Na+].[Na+] [B.2, citric acid trisodiumsalt, reference compound] | 95

Same assay, conditions: base formulation II. (Lipolase 0.2 wt%, tested compound 2.5 wt%); 7 d storage at 37° C.

SMILES | lipase activity, 7 d [%]
O=C([O-])CC(O)(CC(=O)[O-])C(=O)[O-].[Na+].[Na+].[Na+] [B.2, citric acid trisodiumsalt, reference compound] | 82

Same assay, conditions: base formulation II. (Lipolase 0.2 wt%, tested compound 2.5 wt%); 14 d storage at 37° C.

SMILES | lipase activity, 14 d [%]
O=C([O-])CC(O)(CC(=O)[O-])C(=O)[O-].[Na+].[Na+].[Na+] [B.2, citric acid trisodiumsalt, reference compound] | 63

Same assay, conditions: base formulation II. (Lipolase 0.2 wt%, tested compound 2.5 wt%); 21 d storage at 37° C.

SMILES | lipase activity, 21 d [%]
O=C([O-])CC(O)(CC(=O)[O-])C(=O)[O-].[Na+].[Na+].[Na+] [B.2, citric acid trisodiumsalt, reference compound] | 56

Same assay, conditions: base formulation II. (Lipolase 0.2 wt%, tested compound 2.5 wt%); 28 d storage at 37° C.

SMILES | lipase activity, 28 d [%]
O=C([O-])CC(O)(CC(=O)[O-])C(=O)[O-].[Na+].[Na+].[Na+] [B.2, citric acid trisodiumsalt, reference compound] | 41

Same assay, conditions: base formulation II. (Lipolase 0.2 wt%, tested compound 2.5 wt%); 35 d storage at 37° C.

SMILES | lipase activity, 35 d [%]
O=C([O-])CC(O)(CC(=O)[O-])C(=O)[O-].[Na+].[Na+].[Na+] [B.2, citric acid trisodiumsalt, reference compound] | 34

Same assay, conditions: base formulation II. (Lipolase 0.2 wt%, tested compound 2.5 wt%); T0; relative to 100% value of reference formulation at time 0

SMILES | lipase activity, T0 [%]
O=C([O-])CC(O)(CC(=O)[O-])C(=O)[O-].[Na+].[Na+].[Na+] [B.2, citric acid trisodiumsalt, reference compound] | 98

Same assay, conditions: base formulation III. (Lipolase 0.2 wt%, tested compound 2.0 wt%); 3 d storage at 37° C.

SMILES | lipase activity, 3 d [%]
CCCOC(=O)CC(O)(CC(=O)OCCC)C(=O)OCCC [A.2, Tripropylcitrate] | 100
O=C([O-])CC(O)(CC(=O)[O-])C(=O)[O-].[Na+].[Na+].[Na+] [B.2, citric acid trisodiumsalt, reference compound] | 94

Same assay, conditions: base formulation III. (Lipolase 0.2 wt%, tested compound 2.0 wt%); 7 d storage at 37° C.

SMILES | lipase activity, 7 d [%]
CCCOC(=O)CC(O)(CC(=O)OCCC)C(=O)OCCC [A.2, Tripropylcitrate] | 101
O=C([O-])CC(O)(CC(=O)[O-])C(=O)[O-].[Na+].[Na+].[Na+] [B.2, citric acid trisodiumsalt, reference compound] | 80

Same assay, conditions: base formulation III. (Lipolase 0.2 wt%, tested compound 2.0 wt%); 14 d storage at 37° C.

SMILES | lipase activity, 14 d [%]
CCCOC(=O)CC(O)(CC(=O)OCCC)C(=O)OCCC [A.2, Tripropylcitrate] | 97
O=C([O-])CC(O)(CC(=O)[O-])C(=O)[O-].[Na+].[Na+].[Na+] [B.2, citric acid trisodiumsalt, reference compound] | 69

Same assay, conditions: base formulation III. (Lipolase 0.2 wt%, tested compound 2.0 wt%); 21 d storage at 37° C.

SMILES | lipase activity, 21 d [%]
CCCOC(=O)CC(O)(CC(=O)OCCC)C(=O)OCCC [A.2, Tripropylcitrate] | 94
O=C([O-])CC(O)(CC(=O)[O-])C(=O)[O-].[Na+].[Na+].[Na+] [B.2, citric acid trisodiumsalt, reference compound] | 53

Same assay, conditions: base formulation III. (Lipolase 0.2 wt%, tested compound 2.0 wt%); 28 d storage at 37° C.

SMILES | lipase activity, 28 d [%]
CCCOC(=O)CC(O)(CC(=O)OCCC)C(=O)OCCC [A.2, Tripropylcitrate] | 90
O=C([O-])CC(O)(CC(=O)[O-])C(=O)[O-].[Na+].[Na+].[Na+] [B.2, citric acid trisodiumsalt, reference compound] | 44

Same assay, conditions: base formulation III. (Lipolase 0.2 wt%, tested compound 2.0 wt%); 35 d storage at 37° C.

SMILES | lipase activity, 35 d [%]
CCCOC(=O)CC(O)(CC(=O)OCCC)C(=O)OCCC [A.2, Tripropylcitrate] | 87
O=C([O-])CC(O)(CC(=O)[O-])C(=O)[O-].[Na+].[Na+].[Na+] [B.2, citric acid trisodiumsalt, reference compound] | 37

Same assay, conditions: base formulation III. (Lipolase 0.2 wt%, tested compound 2.0 wt%); T0; relative to 100% value of reference formulation at time 0

SMILES | lipase activity, T0 [%]
CCCOC(=O)CC(O)(CC(=O)OCCC)C(=O)OCCC [A.2, Tripropylcitrate] | 102
O=C([O-])CC(O)(CC(=O)[O-])C(=O)[O-].[Na+].[Na+].[Na+] [B.2, citric acid trisodiumsalt, reference compound] | 101

Same assay, conditions: base formulation IV. (Lipolase 0.2 wt%, tested compound 2.0 wt%); 3 d storage at 37° C.

SMILES | lipase activity, 3 d [%]
O=C([O-])CC(O)(CC(=O)[O-])C(=O)[O-].[Na+].[Na+].[Na+] [B.2, citric acid trisodiumsalt, reference compound] | 90

Same assay, conditions: base formulation IV. (Lipolase 0.2 wt%, tested compound 2.0 wt%); 7 d storage at 37° C.

SMILES | lipase activity, 7 d [%]
O=C([O-])CC(O)(CC(=O)[O-])C(=O)[O-].[Na+].[Na+].[Na+] [B.2, citric acid trisodiumsalt, reference compound] | 81

Same assay, conditions: base formulation IV. (Lipolase 0.2 wt%, tested compound 2.0 wt%); 14 d storage at 37° C.

SMILES | lipase activity, 14 d [%]
O=C([O-])CC(O)(CC(=O)[O-])C(=O)[O-].[Na+].[Na+].[Na+] [B.2, citric acid trisodiumsalt, reference compound] | 68

Same assay, conditions: base formulation IV. (Lipolase 0.2 wt%, tested compound 2.0 wt%); 21 d storage at 37° C.

SMILES | lipase activity, 21 d [%]
O=C([O-])CC(O)(CC(=O)[O-])C(=O)[O-].[Na+].[Na+].[Na+] [B.2, citric acid trisodiumsalt, reference compound] | 55

Same assay, conditions: base formulation IV. (Lipolase 0.2 wt%, tested compound 2.0 wt%); 28 d storage at 37° C.

SMILES | lipase activity, 28 d [%]
O=C([O-])CC(O)(CC(=O)[O-])C(=O)[O-].[Na+].[Na+].[Na+] [B.2, citric acid trisodiumsalt, reference compound] | 40

Same assay, conditions: base formulation IV. (Lipolase 0.2 wt%, tested compound 2.0 wt%); 35 d storage at 37° C.

SMILES | lipase activity, 35 d [%]
O=C([O-])CC(O)(CC(=O)[O-])C(=O)[O-].[Na+].[Na+].[Na+] [B.2, citric acid trisodiumsalt, reference compound] | 34

Same assay, conditions: base formulation IV. (Lipolase 0.2 wt%, tested compound 2.0 wt%); T0; relative to 100% value of reference formulation at time 0

SMILES | lipase activity, T0 [%]
O=C([O-])CC(O)(CC(=O)[O-])C(=O)[O-].[Na+].[Na+].[Na+] [B.2, citric acid trisodiumsalt, reference compound] | 96
